US20060281764A1, “AMINOPYRIMIDINES AS KINASE MODULATORS” (priority 2005, published 2006)

Legend:
TrkB = biological target: T1, TrkB (Homo sapiens, UniProt Q16620); assay: Trk B Fluorescence Polarization Kinase Assay; type: biochemical; conditions: FP assay, 150 uM ATP, 50 nM TrkB; uncertainty ±10%
T1 construct: purchased Upstate 14-507M
Description: The compounds of the present invention are also specific inhibitors of TrkB. Selection of preferred compounds of Formula I for use as TrkB inhibitors was performed in the following manner. The TrkB assay utilized the fluorescein-labeled phosphopeptide and the anti-phosphotyrosine antibody included in the Panvera Phospho-Tyrosine Kinase Kit (Green) supplied by Invitrogen. When TrkB phosphorylated poly Glu4Tyr, the fluorescein-labeled phosphopeptide was displaced from the anti-phosphotyrosine antibody by the phosphorylated poly Glu4Tyr, thus decreasing the FP value. The TrkB kinase reaction was incubated at room temperature for 30 minutes under the following conditions: 50 nM TrkB (Upstate, catalog # 14-507M), 20 ug/mL poly Glu4Tyr, 150 uM ATP, 5 mM MgCl2, 1% compound in DMSO. The kinase reaction was stopped with the addition of EDTA. The fluorescein-labeled phosphopeptide and the anti-phosphotyrosine antibody were added and incubated for 30 minutes at room temperature. Data points were an average of triplicate samples. Inhibition and IC50 data analysis were done with GraphPad Prism using a non-linear regression fit with a multiparamater, sigmoidal dose-response (variable slope) equation.

[1] = biological target: T2, isolated kinase domain of the human c-kit receptor (Homo sapiens, UniProt P10721); assay: c-Kit Fluorescence Polarization Kinase Assay; type: biochemical; conditions: FP assay, 50 uM ATP, 1 nM c-kit; uncertainty ±10%
T2 construct: isolated kinase domain of the human c-kit receptor; purchased ProQinase lot SP005
Description: The compounds of the present invention are also specific inhibitors of c-Kit. Selection of preferred compounds of Formula I for use as c-Kit inhibitors was performed in the following manner using an in vitro kinase assay to measure inhibition of the isolated kinase domain of the human c-kit receptor in a fluorescence polarization (FP) protocol. The c-kit assay utilized the fluorescein-labeled phosphopeptide and the anti-phosphotyrosine antibody included in the Panvera Phospho-Tyrosine Kinase Kit (Green) supplied by Invitrogen. When c-kit phosphorylated the poly Glu4Tyr, the fluorescein-labeled phosphopeptide was displaced from the anti-phosphotyrosine antibody by the phosphorylated poly Glu4Tyr, thus decreasing the FP value. The c-kit kinase reaction was incubated at room temperature for 45 minutes under the following conditions: 1 nM c-kit (ProQinase, lot SP005), 100 ug/mL poly Glu4Tyr, 50 uM ATP, 5 mM MgCl2, 1 mM DTT, 0.01% Tween-20, 1% DMSO or compound in […], pH 7.5. The kinase reaction was stopped with the addition of EDTA. The fluorescein-labeled phosphopeptide and the anti-phosphotyrosine antibody were added and incubated for 30 minutes at room temperature and fluorescence polarization was read. Data points were an average of triplicate samples. […]

[2] = biological target: T3, FLT ligand-induced wild-type FLT3 phosphorylation in Baf3 FLT3 cells (Homo sapiens, UniProt P36888); assay: Cell-Based FLT3 Receptor Elisa (Baf3 FLT3 cells); conditions: 1 hour compound incubation, 100 ng/mL Flt ligand, uncertainty ±20%
T3 construct: host or cells: Baf3 (murine B cell lymphoma line)
T3 sequence (P36888 27-993): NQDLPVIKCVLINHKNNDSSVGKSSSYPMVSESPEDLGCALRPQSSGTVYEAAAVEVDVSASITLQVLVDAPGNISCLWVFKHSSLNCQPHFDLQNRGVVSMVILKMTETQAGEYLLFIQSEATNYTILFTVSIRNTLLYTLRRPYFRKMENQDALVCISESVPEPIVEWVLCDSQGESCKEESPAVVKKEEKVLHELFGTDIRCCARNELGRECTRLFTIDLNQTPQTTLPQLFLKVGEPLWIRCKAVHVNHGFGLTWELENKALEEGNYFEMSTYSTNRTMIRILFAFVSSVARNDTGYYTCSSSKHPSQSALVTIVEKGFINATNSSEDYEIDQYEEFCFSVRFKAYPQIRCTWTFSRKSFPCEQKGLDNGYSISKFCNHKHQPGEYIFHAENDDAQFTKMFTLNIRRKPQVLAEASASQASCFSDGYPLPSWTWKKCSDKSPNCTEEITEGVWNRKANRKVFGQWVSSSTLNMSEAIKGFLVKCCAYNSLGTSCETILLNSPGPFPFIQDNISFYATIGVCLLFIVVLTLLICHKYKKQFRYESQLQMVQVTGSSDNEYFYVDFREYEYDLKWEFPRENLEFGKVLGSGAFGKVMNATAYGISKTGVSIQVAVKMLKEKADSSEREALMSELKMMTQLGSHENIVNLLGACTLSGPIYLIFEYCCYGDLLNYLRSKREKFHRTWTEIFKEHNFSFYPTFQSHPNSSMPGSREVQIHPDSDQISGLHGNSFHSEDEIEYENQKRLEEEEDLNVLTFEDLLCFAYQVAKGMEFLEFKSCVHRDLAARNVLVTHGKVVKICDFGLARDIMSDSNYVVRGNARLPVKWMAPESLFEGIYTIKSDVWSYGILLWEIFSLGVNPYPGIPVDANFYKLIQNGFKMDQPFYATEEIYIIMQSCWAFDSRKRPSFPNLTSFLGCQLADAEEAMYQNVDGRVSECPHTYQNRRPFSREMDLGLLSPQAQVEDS
Description: Specific cellular inhibition of FLT ligand-induced wild-type FLT3 phosphorylation was measured in the following manner: Baf3 FLT3 cells overexpressing the FLT3 receptor were obtained from Dr. Michael Heinrich (Oregon Health and Sciences University). The Baf3 FLT3 cell lines were created by stable transfection of parental Baf3 cells (a murine B cell lymphoma line dependent on the cytokine IL-3 for growth) with wild-type FLT3. Cells were selected for their ability to grow in the absence of IL-3 and in the presence of FLT3 ligand.
Baf3 cells were maintained in RPMI 1640 with 10% FBS, penn/strep and 10 ng/ml FLT ligand at 37° C., 5% CO2. To measure direct inhibition of the wild-type FLT3 receptor activity and phosphorylation a sandwich ELISA method was developed similar to those developed for other RTKs (3,4). 200 μL of Baf3FLT3 cells (1×10^6/mL) were plated in 96 well dishes in RPMI 1640 with 0.5% serum and 0.01 ng/mL IL-3 for 16 hours prior to 1 hour compound or DMSO vehicle incubation. Cells were treated with 100 ng/mL Flt ligand (R&D Systems Cat# 308-FK) for 10 min. at 37° C. Cells were pelleted, washed and lysed in 100 ul lysis buffer (50 mM Hepes, 150 mM NaCl, 10% Glycerol, 1% Triton —X-100, 10 mM NaF, 1 mM EDTA, 1.5 mM MgCl2, 10 mM NaPyrophosphate) supplemented with phosphatase (Sigma Cat# P2850) and protease inhibitors (Sigma Cat #P8340). […]

T1 sequence (Q16620 32-822): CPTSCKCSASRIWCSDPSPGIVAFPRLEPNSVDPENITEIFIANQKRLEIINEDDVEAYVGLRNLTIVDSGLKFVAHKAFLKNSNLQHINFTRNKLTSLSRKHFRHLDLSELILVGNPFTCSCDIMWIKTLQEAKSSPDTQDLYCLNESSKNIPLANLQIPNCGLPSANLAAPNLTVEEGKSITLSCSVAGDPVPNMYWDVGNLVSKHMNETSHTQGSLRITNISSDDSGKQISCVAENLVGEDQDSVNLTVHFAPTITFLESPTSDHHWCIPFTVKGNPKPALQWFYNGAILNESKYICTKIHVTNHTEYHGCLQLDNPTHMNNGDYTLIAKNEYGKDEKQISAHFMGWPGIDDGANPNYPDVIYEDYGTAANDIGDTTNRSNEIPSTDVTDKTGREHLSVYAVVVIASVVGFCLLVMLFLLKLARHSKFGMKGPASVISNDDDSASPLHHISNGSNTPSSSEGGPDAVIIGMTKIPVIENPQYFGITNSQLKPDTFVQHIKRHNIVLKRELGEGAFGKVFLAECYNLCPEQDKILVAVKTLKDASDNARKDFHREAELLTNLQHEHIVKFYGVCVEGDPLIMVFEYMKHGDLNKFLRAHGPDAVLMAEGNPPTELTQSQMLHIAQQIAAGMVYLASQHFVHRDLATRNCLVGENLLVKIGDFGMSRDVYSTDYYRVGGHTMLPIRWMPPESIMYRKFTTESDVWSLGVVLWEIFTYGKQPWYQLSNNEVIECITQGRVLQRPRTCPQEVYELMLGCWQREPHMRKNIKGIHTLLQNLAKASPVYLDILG
T2 sequence (P10721 589-937 limits assumed): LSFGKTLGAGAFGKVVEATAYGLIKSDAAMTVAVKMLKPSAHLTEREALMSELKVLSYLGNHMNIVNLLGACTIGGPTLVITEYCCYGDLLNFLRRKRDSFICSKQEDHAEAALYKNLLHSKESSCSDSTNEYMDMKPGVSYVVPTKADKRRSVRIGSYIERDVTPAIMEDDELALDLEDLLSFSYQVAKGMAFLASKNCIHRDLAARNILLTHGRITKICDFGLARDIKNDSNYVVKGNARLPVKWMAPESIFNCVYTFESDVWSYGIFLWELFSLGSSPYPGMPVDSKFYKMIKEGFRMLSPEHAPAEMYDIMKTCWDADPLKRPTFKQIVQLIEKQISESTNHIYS

Row | Structure (SMILES) | IC50 (TrkB) [µM] | IC50 [1] [µM] | IC50 [2] [µM]
1 | CO/N=C/c1c(N)ncnc1N1CCC(OC(=O)Nc2ccc(OC(C)C)cc2)CC1 [Example 1, (4-Isopropoxy-phenyl)-carbamic acid 1-[6-amino-5-(methoxyimino-methyl)-pyrimidin-4-yl]-piperidin-4-yl ester] | 29.4 |  | 
2 | CCO/N=C/c1c(N)ncnc1N1CCC(OC(=O)Nc2ccc(OC(C)C)cc2)CC1 [Example 2, (4-Isopropoxy-phenyl)-carbamic acid 1-[6-amino-5-(ethoxyimino-methyl)-pyrimidin-4-yl]-piperidin-4-yl ester] | > 42 | 0.38 | 
3 | CC(C)Oc1ccc(NC(=O)OC2CCN(c3ncnc(N)c3/C=N/OCCN3CCOCC3)CC2)cc1 [Example 3, (4-Isopropoxy-phenyl)-carbamic acid 1-{6-amino-5-[(2-morpholin-4-yl-ethoxyimino)-methyl]-pyrimidin-4-yl}-piperidin-4-yl ester] | > 42 |  | 
4 | CC(C)Oc1ccc(NC(=O)OC2CCN(c3ncnc(N)c3/C=N/OCCCN(C)C)CC2)cc1 [Example 4, (4-Isopropoxy-phenyl)-carbamic acid 1-{6-amino-5-[(3-dimethylamino-propoxyimino)-methyl]-pyrimidin-4-yl}-piperidin-4-yl ester] | > 42 |  | 0.345
5 | CO/N=C/c1c(N)ncnc1N1CCC(OC(=O)Nc2ccc(C(C)C)cc2)CC1 [Example 5, (4-Isopropyl-phenyl)-carbamic acid 1-[6-amino-5-(methoxyimino-methyl)-pyrimidin-4-yl]-piperidin-4-yl ester] | 23.9 |  | 
6 | CO/N=C/c1c(N)ncnc1N1CCC(CC(=O)Nc2ccc(C(C)C)cc2)C1 (stereo not shown) [Example 6, 2-{1-[6-Amino-5-(methoxyimino-methyl)-pyrimidin-4-yl]-pyrrolidin-3-yl}-N-(4-isopropyl-phenyl)-acetamide] | 0.3 | 0.016 | 
7 | CO/N=C/c1c(N)ncnc1N1CCC(CC(=O)Nc2ccc(C(C)C)cc2)CC1 [Example 7, 2-{1-[6-Amino-5-(methoxyimino-methyl)-pyrimidin-4-yl]-piperidin-4-yl}-N-(4-isopropyl-phenyl)-acetamide] | 2.16 |  | 
8 | CO/N=C/c1c(N)ncnc1N1CCC(NC(=O)Nc2ccc(OC(C)C)cc2)C1 (stereo not shown) [Example 8, 1-{1-[6-Amino-5-(methoxyimino-methyl)-pyrimidin-4-yl]-pyrrolidin-3-yl}-3-(4-isopropoxy-phenyl)-urea] | 14.2 |  | 
9 | CO/N=C/c1c(N)ncnc1N1CCC(NC(=O)Nc2ccc(N3CCCCC3)cc2)C1 (stereo not shown) [Example 9, 1-{1-[6-Amino-5-(methoxyimino-methyl)-pyrimidin-4-yl]-pyrrolidin-3-yl}-3-(4-piperidin-1-yl-phenyl)-urea] | 11.9 |  | 
10 | CO/N=C/c1c(N)ncnc1N1CCC(NC(=O)Nc2ccc(N3CCOCC3)cc2)C1 (stereo not shown) [Example 10, 1-{1-[6-Amino-5-(methoxyimino-methyl)-pyrimidin-4-yl]-pyrrolidin-3-yl}-3-(4-morpholin-4-yl-phenyl)-urea] | 32.1 |  | 
11 | CO/N=C/c1c(N)ncnc1N1CCC(NC(=O)Nc2ccc(OC3CCC3)nc2)C1 (stereo not shown) [Example 11, 1-{1-[6-Amino-5-(methoxyimino-methyl)-pyrimidin-4-yl]-pyrrolidin-3-yl}-3-(6-cyclobutoxy-pyridin-3-yl)-urea] | 4.2 |  | 
12 | CO/N=C/c1c(N)ncnc1N1CCC(NC(=O)Nc2ccc(OC(C)C)cc2)CC1 [Example 12, 1-{1-[6-Amino-5-(methoxyimino-methyl)-pyrimidin-4-yl]-piperidin-4-yl}-3-(4-isopropoxy-phenyl)-urea] | 8.5 |  | 
13 | CO/N=C/c1c(N)ncnc1N1CCC(NC(=O)Nc2ccc(N3CCCCC3)cc2)CC1 [Example 13, 1-{1-[6-Amino-5-(methoxyimino-methyl)-pyrimidin-4-yl]-piperidin-4-yl}-3-(4-piperidin-1-yl-phenyl)-urea] | 2.9 |  | 
14 | CO/N=C/c1c(N)ncnc1N1CCC(NC(=O)Nc2ccc(N3CCOCC3)cc2)CC1 [Example 14, 1-{1-[6-Amino-5-(methoxyimino-methyl)-pyrimidin-4-yl]-piperidin-4-yl}-3-(4-morpholin-4-yl-phenyl)-urea] | 15.6 |  | 
15 | CO/N=C/c1c(N)ncnc1N1CCC(NC(=O)Nc2ccc(OC3CCC3)nc2)CC1 [Example 15, 1-{1-[6-Amino-5-(methoxyimino-methyl)-pyrimidin-4-yl]-piperidin-4-yl}-3-(6-cyclobutoxy-pyridin-3-yl)-urea] | > 42 |  | 
16 | CO/N=C/c1c(N)ncnc1N1CCC(NC(=O)Cc2ccc(C(C)C)cc2)CC1 [Example 16, N-{1-[6-Amino-5-(methoxyimino-methyl)-pyrimidin-4-yl]-piperidin-4-yl}-2-(4-isopropyl-phenyl)-acetamide] | 7.4 |  | 
